The values that follow come from US20030007941A1, “Method of treating hair loss using thyromimetic compounds” (priority 2001, published 2003).

Bounds are passed on as bounds.

One assay relates to C3H/HeN mice. Put plainly: Telogen Conversion Assay (topical hair growth). To be noted: for Hair Growth at LDO (% Animals): animals with hair growth score of 1 or greater; for Hair Growth in 50% of Animals: day when 50% or greater had score of 1 or greater. The format is in vivo. From the text: The Telogen Conversion Assay measures the potential of a compound (hereinafter referred to as the “test compound”) to convert mice in the resting stage of the hair growth cycle (“telogen”) to the growth stage of the hair growth cycle (“anagen”). Without intending to be limited by theory, there are three principal phases of the hair growth cycle: anagen, catagen and telogen. The telogen period in C3H/HeN mice lasts from approximately 40 days of age until about 75 days of age, when hair growth is synchronized. It is believed that after 75 days of age, hair growth is no longer synchronized. For example, about 40 day-old mice with dark fur (brown or black) may be used in hair growth experiments; melanogenesis occurs in these animals along with hair (fur) growth and the topical application of hair growth inducers may be evaluated in these animals.
The Telogen Conversion Assay described below is used to screen test compounds for potential hair growth by measuring melanogenesis:
Objectives: To evaluate and compare the effect of test compounds applied topically on C3H/HeN mice for hair growth.
Animals: Female C3H/HeN mice, six and a half weeks of age.
Route and Duration of Treatment: Topical dosing with test compounds on mice is scheduled once or twice daily for five (5) consecutive days for one week to four weeks. Topical dosing begins on Day 0 by applying test compound or vehicle in volumes of 20 μl which keeps the solubilized test compound to a prescribed area of approximately one (1) square centimeter (1 cm^2) in the center of the clipped lower back of each mouse.
Study Design: Only mice with pink skin or in the telogen phase of the hair growth cycle are selected for inclusion in the study. On Friday, before the experiment starts, the mice are weighed and then anesthetized with isoflurane in a mouse chamber. The hair over the lower dorsal area is clipped with a Wahl clipper using a #40 blade. Care is taken to avoid abrading the skin surface. On the Monday (Day 0) following hair clipping, the mice are again anesthetized with isoflurane and photographed with a digital camera. After digital photographs are taken, the mice receive 20 μl of the respective test compounds applied with an automated pipette to the clipped area between the hind legs. The test compound for each treatment group is evenly spread with the pipette tip to an area approximately 1 square centimeter (1 cm^2), and applied to the same site on subsequent dosing days. All topical treatments are administered as described in the Route and Duration of Treatment Section.
Observations of the test sites are made three (3) times a week on Monday, Wednesday, and Friday, with observations beginning immediately after the first week of treatment and looking for changes in skin pigment, hair growth, and signs of irritation such as scaling, peeling, scabbing and erythema. Digital photographs are taken on Days 0, 10, 15, 31 and 35 (end of the study) for the dosing groups. Body weights of mice are taken on the first and last days of observation for each test group.
The scoring system for hair growth is described below:
0=No hair growth/pigment change (pink skin);
1=Gray/dark skin color (no visible hair growth);
2=Sparse/diffuse terminal hair growth;
3=dense, normal hair growth.
ph 2=peripheral hair growth with a score of 2
ph 3=peripheral hair growth with a score of 3
ldsh=long, diffuse/scattered hair growth in the dosing site
Scaling, peeling, scabbing, or erythema are scored as present (+) and absent (−). Any other local (e.g. test compound precipitation) or systemic abnormalities and aberrant hair growth are described on raw data scoring sheet.
Table 1 is a summary table of the results of the evaluation of five different test compounds in the Telogen Conversion Assay described above. Animals were observed and scored for hair growth using the scoring system for hair growth described above.

The test system of the next assay is mice and rats. To be noted: topical; cited from earlier work.
Another assay concerns AGA mouse. The conditions noted are these: topical, model for androgen dependent hair loss; cited from earlier work.
Where [1] appears, read: Experiment 1, 0.001% topical, 1 wk, LDO day 30.
Where [2] appears, read: Experiment 1, 0.01% topical, 1 wk, LDO day 30.
Where [3] appears, read: Experiment 1, 0.1% topical, 1 wk, LDO day 30.
Setting [4] is: Experiment 1, 0.3% topical, 1 wk, LDO day 30.
Where [5] appears, read: Experiment 2, 0.001% topical, 1 wk, LDO day 35.
Where [6] appears, read: Experiment 2, 0.01% topical, 1 wk, LDO day 35.
Setting [7] is: Experiment 2, 0.1% topical, 1 wk, LDO day 35.
Setting [8] is: Experiment 2, 0.3% topical, 1 wk, LDO day 35.
The mark [9] stands for this setting: Experiment 3, 0.1% topical, 1 wk, LDO day 35.
Setting [10] is: Experiment 3, 0.1% topical, 2 wks, LDO day 35.

With `O=C(NC1CCCCC1)c1cc(Oc2c(Cl)cc(-n3ncc(=O)[nH]c3=O)cc2Cl)ccc1O` [Cpd #1, N-Cyclohexyl-5-[2,6-dichloro-4-(3,5-dioxo-4,5-dihydro-3H-[1,2,4]triazin-2-yl)-phenoxy]-2-hydroxy-benzamide], the “Hair Growth at LDO (% Animals)” value in the assay with C3H/HeN mice (setting [1]) worked out at 22%; in the assay with C3H/HeN mice (setting [2]), 75%; in the assay on C3H/HeN mice (setting [3]), 100%; with C3H/HeN mice (setting [4]), 100%; with C3H/HeN mice (setting [5]), 50%; with C3H/HeN mice (setting [6]), 100%. Besides, the “Hair Growth at LDO (% Animals)” value in the assay with C3H/HeN mice (setting [7]), in the assay on C3H/HeN mice (setting [8]), in the assay with C3H/HeN mice (setting [9]) and in the assay on C3H/HeN mice (setting [10]) was 100% in each case. In addition, the “Hair Growth in 50% of Animals” value is over 30 days in the assay on C3H/HeN mice (setting [1]); 14 days in the assay with C3H/HeN mice (setting [2]); 7 days with C3H/HeN mice (setting [3]); 9 days in the assay with C3H/HeN mice (setting [4]); 18 days in the assay on C3H/HeN mice (setting [5]); 14 days in the assay on C3H/HeN mice (setting [6]). The “Hair Growth in 50% of Animals” value in the assay with C3H/HeN mice (setting [7]) was 7 days; in the assay on C3H/HeN mice (setting [8]), 9 days; with C3H/HeN mice (setting [9]), 7 days; in the assay on C3H/HeN mice (setting [10]) it was 7 days.
Regarding `O=C(c1cc(Oc2c(Cl)cc(-n3ncc(=O)[nH]c3=O)cc2Cl)ccc1O)N1CCc2ccccc2C1` [Cpd #2, 2-{3,5-Dichloro-4-[3-(3,4-dihydro-1H-isoquinoline-2-carbonyl)-4-hydroxy-phenoxy]-phenyl}-2H-[1,2,4]triazine-3,5-dione], in the assay with C3H/HeN mice (setting [10]), the “Hair Growth at LDO (% Animals)” value was determined as 100% and the “Hair Growth in 50% of Animals” value was 11 days.
On the same counts, the results for `Cc1cc(NC(=O)C(=O)O)cc(C)c1Oc1ccc(O)c2c1CCC2` [Cpd #3, N-[4-(7-hydroxy-indan-4-yloxy)-3,5-dimethyl-phenyl]-oxamic acid] are 20% and over 35 days.
With `Cc1cc(-n2ncc(=O)[nH]c2=O)cc(C)c1Oc1ccc(O)c(Cc2ccc(F)cc2)c1` [Cpd #4, 2-{4-[3-(4-Fluoro-benzyl)-4-hydroxy-phenoxy]-3,5-dimethyl-phenyl}-2H-[1,2,4]triazine-3,5-dione], in the assay with C3H/HeN mice (setting [10]), the “Hair Growth at LDO (% Animals)” value is listed as 100% and the “Hair Growth in 50% of Animals” value turned out to be 9 days.
For `O=C(c1ccc(F)cc1)c1cc(Oc2c(Cl)cc(-n3ncc(=O)[nH]c3=O)cc2Cl)ccc1O` [Cpd #5, 2-{3,5-Dichloro-4-[3-(4-fluoro-benzoyl)-4-hydroxy-phenoxy]-phenyl}-2H-[1,2,4]triazine-3,5-dione] the same measures were 100% and 9 days.
Regarding `N[C@@H](Cc1cc(I)c(Oc2ccc(O)c(I)c2)c(I)c1)C(=O)O` [T3, 3,5,3′-triiodo-L-thyronine], the “effect on epidermal proliferation, dermal thickening and hair growth” value in the assay with mice and rats is “stimulates epidermal proloferation, dermal thickening and hair growth”. For the same compound, in the assay on AGA mouse, the “effect on testosterone induced alopecia” value is “inhibitory effect”.
